# Laboratory results: patent US20250134874A1, “PHARMACEUTICAL FORMULATIONS COMPRISING 3-({[(4R)-7-{METHYL[4-(PROPAN-2-YL)PHENYL]AMINO}-3,4-DIHYDRO-2H-1-BENZOPYRAN-4-YL]METHYL}AMINO)PYRIDINE-4-CARBOXYLIC ACID” (TACHYON THERAPEUTICS, INC., priority 2021, published 2025)
# Test system: 301 cancer cell lines from different tumor types (OncoPanel; HD Biosciences)
# Test: 2D cell viability inhibition assay (CellTiter-Glo) in cancer cell line panel
# Type: cell-based
# Settings: Homo sapiens
# Protocol: In a larger screening study, compound 1 was evaluated across a broad cancer cell line panel (OncoPanel; HD Biosciences) composed of 301 cancer cell lines from different tumor types.
# 2D cell viability inhibition assays were performed in multiwell plates seeded with cells from the panel. After seeding, the plates were cultured overnight in a humidified incubator at 37° C. to promote adherence. Assays were initiated in individual wells by adding either DMSO as a vehicle control, growth media as a blank, or serially diluted compound 1 (10 μM to 0.0005 μM with 1:3 serial dilution). Cultures were incubated for 168 hours after which the number of viable cells in each test well was assessed using the CellTiter-Glo® Luminescent Cell Viability Assay. Luminescence readouts were performed using an EnVision® Multilabel Reader and the compound 1 readouts were normalized to the DMSO control readouts, expressed as a percent of the control. Outliers were flagged out by visual inspection. Percent of control was plotted against the corresponding compound 1 concentration and the absolute IC50 value was determined using four-parameter logistic non-linear regression as the concentration where inhibition was 50% of the control. For maximum inhibition <50%, the absolute IC50 was reported as >10. In addition to EC50 and IC50, AUC was determined and was normalized to the area corresponding to theoretical no-inhibition (the rectangular area defined by the compound dose range and 0 to 100 in y). Emax was recorded as the minimum in y with the compound dose range. For those cell lines where Emax>40, EC50 was manually set to 10 μM. A hierarchical clustering algorithm based on Euclidean distance between the standardized input values and “Ward.D” method as implemented in R hclust function was used to visualize the compound 1 cellular potency data. The sensitive/moderate/resistant calls for each cell line was determined by visually inspecting the resulting clustering dendrogram. All the analyses were done in R Core Team.
# [1] = Detroit 562, DETROIT562 cell line
# [2] = Granta-519, GRANTA519 cell line
# [3] = KARPAS-422, KARPAS422 cell line
structure (smiles),measurement,setting,value
"CC(C)c1ccc(N(C)c2ccc3c(c2)OCC[C@H]3CNc2cnccc2C(=O)O)cc1 [Compound 1, 3-({[(4R)-7-{methyl[4-(propan-2-yl)phenyl]amino}-3,4-dihydro-2H-1-benzopyran-4-yl]methyl}amino)pyridine-4-carboxylic acid]",IC50,"Calu-6, CALU6 cell line",14.9 nM
same,EC50,"Caov-3, CAOV3 cell line",5.25 nM
same,IC50,"Caov-3, CAOV3 cell line",6.47 nM
same,IC50,"Capan-2, 168 h, CAPAN2, pancreas, ductal carcinoma, 168 hours",> 10000 nM
same,EC50,"DLD-1, DLD1 cell line",1.47 nM
same,IC50,"DLD-1, DLD1 cell line",2.53 nM
same,IC50,"DMS-53, 168 h, DMS53, lung, small cell carcinoma, 168 hours",> 10000 nM
same,EC50,"DMS-79, DMS79 cell line",1.28 nM
same,IC50,"DMS-79, DMS79 cell line",3.47 nM
same,IC50,"DMS-153, DMS153 cell line",> 10000 nM
same,EC50,"DMS-273, DMS273 cell line",16.3 nM
same,IC50,"DMS-273, DMS273 cell line",22.2 nM
same,EC50,"DU-145, DU145 cell line",16.6 nM
same,IC50,"DU-145, DU145 cell line",17.7 nM
same,EC50,"DV-90, DV90 cell line",5.36 nM
same,IC50,"DV-90, DV90 cell line",7.36 nM
same,IC50,"Daoy, 168 h, central nervous system, NS",> 10000 nM
same,EC50,"Daudi, DAUDI cell line",13.4 nM
same,IC50,"Daudi, DAUDI cell line",14.9 nM
same,EC50,[1],10.4 nM
same,IC50,[1],16.7 nM
same,EC50,"FTC-133, FTC133 cell line",4.28 nM
same,IC50,"FTC-133, FTC133 cell line",7.49 nM
same,IC50,"G-361, 168 h, G361, skin, NS, 168 hours",> 10000 nM
same,EC50,"G-401, G401 cell line",4.39 nM
same,IC50,"G-401, G401 cell line",4.45 nM
same,EC50,"GI-1, GI1 cell line",295 nM
same,IC50,"GI-1, GI1 cell line",287 nM
same,EC50,[2],14.9 nM
same,IC50,[2],17.6 nM
same,IC50,"HCC38, 168 h, HCC38, breast, ductal carcinoma, 168 hours",> 10000 nM
same,EC50,"HCC70, HCC70 cell line",8.56 nM
same,IC50,"HCC70, HCC70 cell line",11 nM
same,EC50,"HCC78, HCC78 cell line",12.7 nM
same,IC50,"HCC78, HCC78 cell line",23.9 nM
same,EC50,"HCC95, HCC95 cell line",3.34 nM
same,IC50,"HCC95, HCC95 cell line",4.4 nM
same,IC50,"HCC827, 168 h, HCC827, lung, adenocarcinoma, 168 hours",> 10000 nM
same,IC50,"HCC1143, HCC1143 cell line",> 10000 nM
same,EC50,"HCC1187, HCC1187 cell line",3.1 nM
same,IC50,"HCC1187, HCC1187 cell line",6.51 nM
same,IC50,"HCC1419, 168 h, HCC1419, breast, ductal carcinoma, 168 hours",> 10000 nM
same,IC50,"HCC1428, 168 h, HCC1428, breast, NS, 168 hours",> 10000 nM
same,EC50,"HCC1599, HCC1599 cell line",3.82 nM
same,IC50,"HCC1599, HCC1599 cell line",5.64 nM
same,EC50,"HCC1806, HCC1806 cell line",5.13 nM
same,IC50,"HCC1806, HCC1806 cell line",13 nM
same,IC50,"HCC1937, 168 h, HCC1937, breast, ductal carcinoma, 168 hours",> 10000 nM
same,IC50,"HCC1954, HCC1954 cell line",40.6 nM
same,IC50,"HCC2935, HCC2935 cell line",> 10000 nM
same,EC50,"HCT-15, HCT15 cell line",1.47 nM
same,IC50,"HCT-15, HCT15 cell line",1.79 nM
same,EC50,"HCT-116, HCT116 cell line",4.99 nM
same,IC50,"HCT-116, HCT116 cell line",20.4 nM
same,EC50,"HEL, HEL cell line",3.6 nM
same,IC50,"HEL, HEL cell line",11.7 nM
same,EC50,"HL-60, HL60 cell line",8.12 nM
same,IC50,"HL-60, HL60 cell line",9.32 nM
same,EC50,"HLE, HLE cell line",10.4 nM
same,IC50,"HLE, HLE cell line",11.3 nM
same,EC50,"HMCB, HMCB cell line",0.815 nM
same,IC50,"HMCB, HMCB cell line",11.1 nM
same,EC50,"HPAC, HPAC cell line",2.38 nM
same,IC50,"HPAC, HPAC cell line",3.93 nM
same,EC50,"HSC-2, HSC2 cell line",5.09 nM
same,IC50,"HSC-2, HSC2 cell line",7.99 nM
same,IC50,"HSC-3, HSC3 cell line",60.3 nM
same,EC50,"HSC-4, HSC4 cell line",4.33 nM
same,IC50,"HSC-4, HSC4 cell line",6.95 nM
same,EC50,"HT55, HT55 cell line",12.7 nM
same,IC50,"HT55, HT55 cell line",14.2 nM
same,EC50,"HT-29, HT29 cell line",22.8 nM
same,IC50,"HT-29, HT29 cell line",37 nM
same,IC50,"HT-144, 168 h, HT144, skin, NS, 168 hours",> 10000 nM
same,EC50,"HT-1080, HT1080 cell line",12.8 nM
same,IC50,"HT-1080, HT1080 cell line",14.1 nM
same,EC50,"HT-1376, HT1376 cell line",17.9 nM
same,IC50,"HT-1376, HT1376 cell line",36.3 nM
same,EC50,"HepG2, HEPG2 cell line",≥ 10000 nM
same,IC50,"HepG2, HEPG2 cell line",52.1 nM
same,EC50,"Hs 294T, HS294T cell line",30.7 nM
same,IC50,"Hs 294T, HS294T cell line",66.8 nM
same,IC50,"Hs 695T, 168 h, HS695T, skin, NS",> 10000 nM
same,EC50,"Hs-578T, HS578T cell line",6.9 nM
same,IC50,"Hs-578T, HS578T cell line",13.9 nM
same,EC50,"HuH-1, HUH1 cell line",10.6 nM
same,IC50,"HuH-1, HUH1 cell line",11.8 nM
same,EC50,"HuTu80, HUTU80 cell line",4.21 nM
same,IC50,"HuTu80, HUTU80 cell line",4.36 nM
same,EC50,"Huh-7, HUH7 cell line",12.9 nM
same,IC50,"Huh-7, HUH7 cell line",14 nM
same,IC50,"J82, J82 cell line",> 10000 nM
same,EC50,"JIMT-1, JIMT1 cell line",46.6 nM
same,IC50,"JIMT-1, JIMT1 cell line",61.9 nM
same,EC50,"JeKo-1, JEKO1 cell line",2.31 nM
same,IC50,"JeKo-1, JEKO1 cell line",1.8 nM
same,EC50,"Jurkat, JURKAT cell line",1.66 nM
same,IC50,"Jurkat, JURKAT cell line",1.49 nM
same,EC50,"K562, K562 cell line",4.08 nM
same,IC50,"K562, K562 cell line",4.56 nM
same,IC50,"KALS-1, KALS1 cell line",> 10000 nM
same,EC50,[3],5.42 nM
same,IC50,[3],6.53 nM
same,EC50,"KATO III, KATOIII cell line",40.4 nM
same,IC50,"KATO III, KATOIII cell line",43.8 nM
same,EC50,"KM12, KM12 cell line",6.3 nM
same,IC50,"KM12, KM12 cell line",7.34 nM
same,EC50,"KMS-11, KMS11 cell line",10.9 nM
same,IC50,"KMS-11, KMS11 cell line",12.2 nM
same,EC50,"KNS-62, KNS62 cell line",12.4 nM
same,IC50,"KNS-62, KNS62 cell line",14.9 nM
same,EC50,"KU-19-19, KU1919 cell line",8.77 nM
same,IC50,"KU-19-19, KU1919 cell line",10.3 nM
